According to patent US5688773A, “Method of selectively destroying neoplastic cells” (priority 1994, dated 1997):

Key:
C6-P450 cells = experiment: Cell proliferation assay
L450-2 tumors = experiment: Tumor growth delay study; type: in vivo, Fischer 344 rats; details: 100 mg/kg single intraperitoneal injection 7 days after implantation; tumors inhibited/total, 7-8 weeks
Method: (§1) Tumor Growth Delay Studies: 9L cells were grown subcutaneously (s.c.) as solid tumors in female Fischer 344 rats. Adult female Fischer 344 rats (120-150g) were inoculated at 2×10^6 cells/s.c. site; cytochrome P450 2B1-negative cells (parental 9L or 9L-Z cells) were injected in one thigh and cytochrome P450 2B1-positive cells (9L-ZP or L450-2 cells) in the other thigh. This strategy was employed to control any potential effects that subcutaneous growth of the 9L tumor might have on liver cytochrome P450-dependent cyclophosphamide activation activity. Drug treatment was initiated seven days after tumor implantation. Rats were randomized and divided into two groups. One group was treated with cyclophosphamide at 100 mg/kg body weight given as a single intraperitoneal injection. Another group was injected with saline as control. Tumor size was monitored by caliper measurement at times ranging up to 7-8 weeks, at which point the animals were sacrificed.

9L-Z tumors = experiment: Tumor growth delay study; type: in vivo, Fischer 344 rats; details: 100 mg/kg single intraperitoneal injection 7 days after implantation; tumors inhibited/total, 7-8 weeks
Method: as §1

9L tumors = experiment: Tumor growth delay study; type: in vivo, Fischer 344 rats; details: 100 mg/kg single intraperitoneal injection 7 days after implantation; tumors inhibited/total, 7-8 weeks
Method: as §1

9L-ZP tumors = experiment: Tumor growth delay study; type: in vivo, Fischer 344 rats; details: 100 mg/kg single intraperitoneal injection 7 days after implantation; tumors inhibited/total, 7-8 weeks
Method: as §1

C6 tumors = experiment: Cyclophosphamide sensitivity of subcutaneous tumors; type: in vivo, nude mice; details: day 17
Method: (§2) Animal Studies: For animal injections, cultured cells in the proliferative stage were replated 24 hours before harvesting, then trypsinized, centrifuged at low speed, washed once by resuspension in Hank's buffered saline, centrifuged, and then resuspended in DMEM without serum at a density of 5×10^6 cells/mL. For subcutaneous injections, 10^6 C450-8 or C6 cells in 200 μl were injected into the flanks of athymic mice (NCY/Sed, nu/nu; MGH breeding colony; five animals per group). After 3 days, when tumors had reached a volume of about 0.01 cm^3 (as measured by external calipers) (Lee et al., Neurosurgery 26:598-605 (1990) and again at 14 days, 100 μl injections of either 20 mg CPA (Sigma) per mL saline or 100 μl saline were performed directly into the tumor mass. Animals were sacrificed at 17 days by euthanasia.

C450-8 tumors = experiment: as above; type: in vivo, nude mice; details: day 17
Method: as §2

C6BAG cells alone = experiment: GCV treatment of subcutaneous tumors; type: in vivo, nude mice; details: subcutaneous inoculation
C6VIK cells [1] = experiment: Ganciclovir sensitivity, cell proliferation assay; type: cell-based; details: Rattus norvegicus, 96 h; four-day period; read-out: Fifty percent inhibition of growth
Method: (§3) Ganciclovir Sensitivity Assays in Culture: To measure the sensitivity of isolated cells, cells were plated in 24-well plates at a density of 10^4 cells per well. The next day, medium was replaced with medium containing ganciclovir (Cytovene, Burroughs Wellcome) at varying concentrations (0-1 μM) in quadruplicate. Four days later, cells were harvested using trypsin and counted using a cell counter (Coulter Electronics Ltd., Luton, United Kingdom). Cell growth is expressed as the percentage of cells compared to the number of cells without treatment (100%).

C6VIKWT cells [2] = experiment: Ganciclovir sensitivity, cell proliferation assay; type: cell-based; details: Rattus norvegicus, 96 h; four-day period; read-out: Fifty percent inhibition of growth
Method: as §3

C6VIKWT cells [3] = details: colony survival; drug from day 7 for 9-12 days
Method: To measure the ganciclovir sensitivity of colony formation, cells were plated in duplicate at a density of 500 cells per 25 cm^2 culture flask. Seven days later, ganciclovir was added at various concentrations (0, 0.1, 0.5, 1, 10, 50, 100, 300 μM) in quadruplicate and incubation was for 9-12 days, with medium changes every 3-5 days. Cells were then fixed with 100% methanol, and stained with Giemsa (Freshney, R. I., "Culture of Animal Cells," in: A Manual of Basic Techniques, 2d ed., New York, Alan R. Liss, Inc., pp. 170-171 (1987)), and colonies ≥2 mm in diameter were counted.

C6VIK cells [4] = experiment: GCV killing in culture; type: cell-based; details: Rattus norvegicus, read-out: GCV concentration at which 50% of cells were killed
Source text: (§4) Retroviral vectors can be used to transfer genes into the genome of dividing cells. In order to increase the efficiency of gene delivery and killing effect of ganciclovir, a new packaging line (C6VIK-WT) was developed by infecting C6VIK cells with an ecotropic wild-type retrovirus (MoMLV). See Mann et al., Cell 33:153-159 (1983); Price et al., Proc. Natl. Acad. Sci. USA 84:156-160 (1987); and Cepko, C., in Neuromethods, vol. 16, Molecular Neurobiological Techniques, Boulton et al., eds., The Humana Press, Clifton, N.J. (1989), pp. 177-219. Because tumor cells can migrate deep into brain parenchyme, they should be able to deliver the vector to tumor cells away from the tumor mass. In culture, 50% of C6VIK-WT cells were killed at 0.024 μM GCV, while it took 7.3 μM GCV to kill 50% of C6VIK cells. […] When C6VIK and C6VIK-WT were cultured with C6BAG cells (labelled with the lacZ gene and thus detectable by beta-galactosidase histochemistry), following GCV treatment substantially more C6BAG cells were killed when co-cultured with C6VIK-WT than with C6VIK cells. Presumably C6VIK-WT cells produce both wild-type retrovirus and retrovirus vectors containing the HSV-TK gene (neither of which are produced by C6VIK cells) and death of C6BAG cells might be mediated by retrovirus infection and/or self-generated GCV toxic products.

C6VIK-WT cells = experiment: GCV killing in culture; type: cell-based; details: Rattus norvegicus, read-out: GCV concentration at which 50% of cells were killed
Source text: as §4

[5] = tested on: C6BAG cells co-cultured with C6VIKWT cells; experiment: Simultaneous co-culture, ganciclovir sensitivity of recipient colonies; type: cell-based, rat; details: 100 μM ganciclovir; donor:recipient ratios of 0.1 and 1
Method: For simultaneous co-culture experiments, 10^3 recipient cells, C6BAG or C6BBAG were plated together with 10^5 C6VIK or C6VIKWT donor cells, in duplicate. Controls were C6BAG or C6BBAG cells co-plated with C6BU1 cells at a similar ratio (1:100). After seven days, ganciclovir was added at varying concentrations (0 to 300 μM) and culture was processed as above. To assess the effects of the ratio of the donor cells to recipient cells, simultaneous co-culture experiments were also done varying the ratio of the donor cell, C6VIKWT, to the recipient cell, C6BAG, from 0.1 to 100.

[6] = 2 mg CPA intratumorally day 3 and 14

Row | Structure (SMILES) | Growth inhibition (C6-P450 cells; 0.5 mM CPA, 10 days) | Effect on cell proliferation (C6-P450 cells; 0.5 mM, four days) | Cell proliferation assay, number of cells (C6-P450 cells; Table V panel A, 0.5 mM, four days) | Complete Tumor Growth Inhibition (L450-2 tumors) | Complete Tumor Growth Inhibition (9L-Z tumors) | Complete Tumor Growth Inhibition (9L tumors) | Complete Tumor Growth Inhibition (9L-ZP tumors) | Tumor volume (C6 tumors; [6]) [cm^3] | ratio of the mean volumes of CPA-treated to saline-treated tumors (C6 tumors) | Tumor volume (C450-8 tumors; [6]) [cm^3] | ratio of the mean volumes of CPA-treated to saline-treated tumors (C450-8 tumors) | Tumor regression (C6BAG cells alone) | IC50 (C6VIK cells [1]) [nM] | IC50 (C6VIKWT cells [2]) [nM] | fold more sensitive than parental line C6VIK at 50% surviving colonies (C6VIKWT cells [3]) [fold] | IC50 (C6VIK cells [4]) [nM] | IC50 (C6VIK-WT cells) [nM] | ganciclovir sensitivity compared to C6BAG cells alone [5]
1 | O=P1(N(CCCl)CCCl)NCCCO1 (stereo not drawn) [cyclophosphamide] | complete growth inhibition | complete inhibition of cell proliferation | 1.15±0.11 ×10^6 | 11/11 | 0/9 | 0/11 | 8/9 | 0.093±0.035 | 0.124 | 0.016±0.003 | 0.035 | – | – | – | – | – | – | –
2 | Nc1nc(O)c2ncn(COC(CO)CO)c2n1 [ganciclovir] | – | – | – | – | – | – | – | – | – | – | – | not with C6BAG cells alone | 10 | 0.3 | 300 | 7300 | 24 | no significant difference
